ChEMBL document CHEMBL1201862, “PubChem BioAssay data set” (2004)
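96-well plates; 48 h exposure; 5 concentrations. Endpoints by linear interpolation between flanking doses. Not reached: highest tested concentration assigned. Here, GI50 denotes the concentration required for 50% inhibition of growth.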 Activity calls are given as the source filed them. Rule as the data show it: active = GI50 up to about 1.1 µM and inactive = higher.

Assays:
Experiment in all cases: NCI tumour cell line growth inhibition, 48 h
CCRF-CEM = system: CCRF-CEM
HCC 2998 = system: HCC 2998
HL-60 = system: HL-60
HOP-62 = system: HOP-62
HOP-92 = system: HOP-92
IGROV-1 = system: IGROV-1
KM12 = system: KM12
NCI-H226 = system: NCI-H226
NCI-H460 = system: NCI-H460
NCI/ADR-RES = system: NCI/ADR-RES
OVCAR-4 = system: OVCAR-4
OVCAR-5 = system: OVCAR-5
OVCAR-8 = system: OVCAR-8
RPMI-8226 = system: RPMI-8226
RXF 393 = system: RXF 393
SF-268 = system: SF-268
SF-539 = system: SF-539
SK-MEL-28 = system: SK-MEL-28
SK-MEL-2 = system: SK-MEL-2
SK-OV-3 = system: SK-OV-3

Measured: GI50

O=C1OC(c2ccccc2)=N/C1=C/c1cccs1
inactive: CCRF-CEM 23.4 µM | HCC 2998 > 100 µM | HL-60 18.8 µM | HOP-62 48.5 µM | HOP-92 > 100 µM | IGROV-1 > 100 µM | KM12 56 µM | NCI-H226 58.3 µM | NCI-H460 > 100 µM | NCI/ADR-RES 38.3 µM | OVCAR-4 41 µM | OVCAR-5 > 100 µM | OVCAR-8 63.1 µM | RPMI-8226 16.4 µM | RXF 393 > 100 µM | SF-268 > 100 µM | SF-539 27.6 µM | SK-MEL-28 > 100 µM | SK-MEL-2 49 µM | SK-OV-3 > 100 µM

CCCCCCc1cn([C@H]2C[C@H](O)[C@@H](CO)O2)c(=O)[nH]c1=O
inactive: CCRF-CEM > 100 µM | HCC 2998 > 100 µM | HL-60 > 100 µM | HOP-62 > 10 µM | HOP-92 > 100 µM | IGROV-1 > 100 µM | KM12 > 100 µM | NCI-H226 > 100 µM | NCI-H460 > 100 µM | NCI/ADR-RES > 100 µM | OVCAR-4 > 100 µM | OVCAR-5 > 100 µM | OVCAR-8 > 100 µM | RPMI-8226 > 100 µM | RXF 393 > 100 µM | SF-268 > 100 µM | SF-539 > 100 µM | SK-MEL-28 > 100 µM | SK-MEL-2 > 100 µM | SK-OV-3 > 10 µM
